Test results published in patent US20040229219A1 (priority 2003, published 2004).

Experiments:
[1] = system: measles virus; details: cited from earlier work
[2] = system: HIV-1; details: cited from earlier work
[3] = system: L2 cells

Compound: carbobenzoxy derivative of phenylalanine-phenylalanine-glycine [z-FFG]
- activity against measles virus [1]: effective

Compound: enfuvirtide
- concentration range that suppresses HIV-1 infection [2]: nanomolar range

Compound: CC[C@H](C)[C@H](NC(=O)[C@H](CC(C)C)NC(=O)[C@H](CC(C)C)NC(=O)[C@H](Cc1c[nH]c2ccccc12)NC(=O)[C@@H](NC(=O)[C@H](Cc1ccc(O)cc1)NC(=O)[C@H](Cc1c[nH]c2ccccc12)NC(=O)[C@@H]1CCCN1C(=O)[C@H](Cc1c[nH]c2ccccc12)NC(=O)[C@H](CCCCN)NC(=O)[C@@H](NC(=O)[C@H](Cc1ccc(O)cc1)NC(=O)[C@H](CCSC)NC(=O)[C@H](CCC(=O)O)NC(=O)[C@H](Cc1ccc(O)cc1)NC(=O)[C@@H](NC(=O)CNC(=O)[C@@H](NC(=O)[C@H](CCC(=O)O)NC(=O)[C@H](CCCCN)NC(=O)[C@H](CC(C)C)NC(=O)[C@H](CC(N)=O)NC(=O)[C@@H](NC(=O)[C@H](Cc1ccc(O)cc1)NC(=O)[C@H](CO)NC(=O)[C@H](CCC(=O)O)NC(=O)[C@H](CC(N)=O)NC(=O)[C@H](CC(C)C)NC(=O)[C@H](CCCCN)NC(=O)[C@H](CCCCN)NC(=O)[C@@H](NC(=O)[C@H](C)NC(=O)[C@H](CC(=O)O)NC(=O)[C@H](CCC(N)=O)NC(=O)[C@@H](NC(=O)[C@@H](N)CCCNC(=N)N)[C@@H](C)CC)[C@@H](C)CC)[C@@H](C)CC)C(C)C)[C@@H](C)O)C(C)C)C(C)C)C(=O)O [SEQ ID NO: 52]
- non-specific cytotoxic effects of the peptide on cells (morphology) [3]: normal morphology
